Source: patent publication US6903112B2, “Heterocyclylindazole and -azaindazole compounds as 5-hydroxytryptamine-6 ligands” (Wyeth, priority 2000, dated 2005)
pKi: −log10 of the molar value.

Target: T1, human cloned 5-HT6 receptors (Homo sapiens, UniProt P50406)
T1 construct: expressed in transfected cells; host or cells: Hela cells
Test: 5-HT6 binding affinity, [3H]-LSD displacement on Hela cell membranes
Details: [3H]-LSD 3.0 nM; membranes of Hela cells expressing human cloned 5-HT6 receptors; 120 min at room temperature
Procedure: The affinity of test compounds for the serotonin 5-HT6 receptor is evaluated in the following manner. Cultured Hela cells expressing human cloned 5-HT6 receptors are harvested and centrifuged at low speed (1,000×g) for 10.0 min to remove the culture media. The harvested cells are suspended in half volume of fresh physiological phosphate buffered saline solution and recentrifuged at the same speed. This operation is repeated. The collected cells are then homogenized in ten volumes of 50 mM Tris.HCl (pH 7.4) and 0.5 mM EDTA. The homogenate is centrifuged at 40,000×g for 30.0 min and the precipitate is collected. The obtained pellet is resuspended in 10 volumes of Tris.HCl buffer and recentrifuged at the same speed. The final pellet is suspended in a small volume of Tris.HCl buffer and the tissue protein content is determined in aliquots of 10-25 μl volumes. Bovine Serum Albumin is used as the standard in the protein determination according to the method described in Lowry et al., J. Biol. Chem., 193:265 (1951). The volume of the suspended cell membranes is adjusted to give a tissue protein concentration of 1.0 mg/ml of suspension. The prepared membrane suspension (10 times concentrated) is aliquoted in 1.0 ml volumes and stored at −70° C. until used in subsequent binding experiments.
Binding experiments are performed in a 96 well microtiter plate format, in a total volume of 200 μl. […] The test compounds are added in 20.0 μl volume.
The reaction is allowed to proceed in the dark for 120 min at room temperature, at which time, the bound ligand-receptor complex is filtered off on a 96 well unifilter with a Packard Filtermate® 196 Harvester. The bound complex caught on the filter disk is allowed to air dry and the radioactivity is measured in a Packard TopCount® equipped with six photomultiplier detectors, after the addition of 40.0 μl Microscint®-20 scintillant to each shallow well. The unifilter plate is heat-sealed and counted in a PackardTopCount® with a tritium efficiency of 31.0%.
Binding in the presence of varying concentrations of test compound is expressed as a percentage of specific binding in the absence of test compound. The results are plotted as log % bound versus log concentration of test compound. […] A linear regression line of data points is plotted, from which the IC50 value is determined and the Ki value is determined based upon the following equation: Ki=IC50/(1+L/KD) where L is the concentration of the radioactive ligand used and KD is the dissociation constant of the ligand for the receptor, both expressed in nM.

T1 sequence (P50406 whole entry): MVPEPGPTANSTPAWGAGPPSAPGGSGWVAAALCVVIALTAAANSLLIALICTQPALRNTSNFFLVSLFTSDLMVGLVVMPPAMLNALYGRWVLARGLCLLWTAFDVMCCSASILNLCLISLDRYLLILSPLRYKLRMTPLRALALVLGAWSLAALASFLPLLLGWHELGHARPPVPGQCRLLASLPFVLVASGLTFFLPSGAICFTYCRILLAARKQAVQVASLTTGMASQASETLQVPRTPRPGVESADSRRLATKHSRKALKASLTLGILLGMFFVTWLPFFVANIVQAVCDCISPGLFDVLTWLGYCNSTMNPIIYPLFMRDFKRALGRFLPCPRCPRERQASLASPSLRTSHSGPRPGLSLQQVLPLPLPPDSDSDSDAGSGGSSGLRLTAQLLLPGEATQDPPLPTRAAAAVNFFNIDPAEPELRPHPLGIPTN

Row | pKi | SMILES
1 | 8.70 | CN1CCC(c2cn(S(=O)(=O)c3ccc(F)cc3)c3ccccc23)C1 (stereo not drawn) [Example 4, 1-(4-fluorophenylsulfonyl)-3-(1-methyl-pyrrolidin-3-yl)-1H-indole]
2 | 9.00 | CN1CCC(c2cn(S(=O)(=O)c3ccc(Cl)cc3)c3ccccc23)C1 (stereo not drawn) [Example 6, 1-(4-chlorophenylsulfonyl)-3-(1-methylpyrrolidin-3-yl)-1H-indole]
3 | 8.52 | CN1CCC(c2cn(S(=O)(=O)c3ccc4ccccc4c3)c3ccccc23)C1 (stereo not drawn) [Example 8, 1-(naphth-2-ylsulfonyl)-3-(1-methylpyrrolidin-3-yl)-1H-indole]
4 | 9.00 | CN1CCC(c2cn(S(=O)(=O)c3ccc(N)cc3)c3ccccc23)C1 (stereo not drawn) [Example 9, 1-(4-aminophenylsulfonyl)-3-(1-methylpyrrolidin-3-yl)-1H-indole]
5 | 8.30 | COc1ccc(S(=O)(=O)n2cc(C3CCN(C)C3)c3ccccc32)cc1OC (stereo not drawn) [Example 10, 1-(3,4-dimethoxyphenylsulfonyl)-3-(1-methylpyrrolidin-3-yl)-1H-indole]
6 | 8.52 | CN1CCC(c2cn(S(=O)(=O)c3ccc(Cl)c(Cl)c3)c3ccccc23)C1 (stereo not drawn) [Example 11, 1-(3,4-dichlorophenylsulfonyl)-3-(1-methylpyrrolidin-3-yl)-1H-indole]
7 | 8.40 | CN1CCC(c2cn(S(=O)(=O)c3cc(Cl)c(Cl)s3)c3ccccc23)C1 (stereo not drawn) [Example 12, 1-[(4,5-dichlorothien-2-yl)sulfonyl]-3-(1-methyl-pyrrolidin-3-yl)-1H-indole]
8 | 9.00 | CN1CCC(c2cn(S(=O)(=O)c3ccccc3Br)c3ccccc23)C1 (stereo not drawn) [Example 13, 1-(2-bromophenylsulfonyl)-3-(1-methylpyrrolidin-3-yl)-1H-indole]
9 | 9.00 | CN1CCC(c2cn(S(=O)(=O)c3ccc(I)cc3)c3ccccc23)C1 (stereo not drawn) [Example 16, 1-(4-iodophenylsulfonyl)-3-(1-methylpyrrolidin-3-yl)-1H-indole]
10 | 8.70 | CN1CCC(c2cn(S(=O)(=O)c3ccccc3I)c3ccccc23)C1 (stereo not drawn) [Example 17, 1-(2-iodophenylsulfonyl)-3-(1-methylpyrrolidin-3-yl)-1H-indole]
11 | 8.10 | Cc1ccc(S(=O)(=O)n2cc(C3CCN(Cc4ccccc4)C3)c3ccccc32)cc1 (stereo not drawn) [Example 18, 3-(1-benzylpyrrolidin-3-yl)-1-(4-methylphenylsulfonyl)-1H-indole]
12 | 9.00 | Nc1ccc(S(=O)(=O)n2cc(C3CCN(Cc4ccccc4)C3)c3ccccc32)cc1 (stereo not drawn) [Example 20, 1-(4-aminophenylsulfonyl)-3-(1-benzylpyrrolidin-3-yl)-1H-indole]
13 | 7.82 | O=S(=O)(c1ccc(Cl)c(Cl)c1)n1cc(C2CCN(Cc3ccccc3)C2)c2ccccc21 (stereo not drawn) [Example 21, 3-(1-benzylpyrrolidin-3-yl)-1-(3,4-dichlorophenyl-sulfonyl)-1H-indole]
14 | 7.85 | O=S(=O)(c1ccccc1Br)n1cc(C2CCN(Cc3ccccc3)C2)c2ccccc21 (stereo not drawn) [Example 22, 3-(1-benzylpyrrolidin-3-yl)-1-(2-bromophenylsulfonyl)-1H-indole]
15 | 8.52 | Cc1nc(N)sc1S(=O)(=O)n1cc(C2CCN(Cc3ccccc3)C2)c2ccccc21 (stereo not drawn) [Example 23, 5-[3-(1-benzylpyrrolidin-3-yl)-indole-1-sulfonyl]-4-methyl-thiazol-2-ylamine]
16 | 8.05 | O=S(=O)(c1ccc(Br)s1)n1cc(C2CCN(Cc3ccccc3)C2)c2ccccc21 (stereo not drawn) [Example 24, 3-(1-benzylpyrrolidin-3-yl)-1-[(5-bromothien-2-yl)sulfonyl]-1H-indole]
17 | 8.30 | CC(C)c1ccc(S(=O)(=O)n2cc(C3CCCNC3)c3ccccc32)cc1 (stereo not drawn) [Example 32, 1-(4-isopropyl-benzenesulfonyl)-3-piperidin-3-yl-1H-indole]
18 | 8.52 | O=S(=O)(c1ccc(Cl)s1)n1cc(C2CCCNC2)c2ccccc21 (stereo not drawn) [Example 33, 1-(5-chloro-thiophene-2-sulfonyl)-3-piperidin-3-yl-1H-indole]
19 | 8.70 | O=S(=O)(c1cccc(Cl)c1)n1cc(C2CCCNC2)c2ccccc21 (stereo not drawn) [Example 34, 1-(3-chloro-benzenesulfonyl)-3-piperidin-3-yl-1H-indole]
20 | 8.15 | O=S(=O)(c1ccc(F)c(F)c1)n1cc(C2CCCNC2)c2ccccc21 (stereo not drawn) [Example 35, 1-(3,4-difluoro-benzenesulfonyl)-3-piperidin-3-yl-1H-indole]
21 | 8.00 | COc1ccc(S(=O)(=O)n2cc(C3CCCNC3)c3ccccc32)cc1 (stereo not drawn) [Example 37, 1-(4-methoxy-benzenesulfonyl)-3-piperidin-3-yl-1H-indole]
22 | 8.00 | O=S(=O)(c1ccc(C(F)(F)F)cc1)n1cc(C2CCCNC2)c2ccccc21 (stereo not drawn) [Example 38, 1-(4-trifluoromethy-benzenesulfonyl)-3-piperidin-3-yl-1H-indole]
23 | 8.22 | Cc1ccc(S(=O)(=O)n2cc(C3CCCNC3)c3ccccc32)cc1Cl (stereo not drawn) [Example 39, 1-(3-chloro-4-methyl-benzenesulfonyl)-3-piperidin-3-yl-1H-indole]
24 | 8.15 | O=S(=O)(c1ccc(Cl)s1)n1cc(C2CCCNC2)c2cccnc21 (stereo not drawn) [Example 47, 1-(5-chloro-thiophene-2-sulfonyl)-3-piperidin-3-yl-1H-pyrrolo[2,3-b]pyridine]
25 | 8.22 | O=S(=O)(c1cccc(Cl)c1)n1cc(C2CCCNC2)c2cccnc21 (stereo not drawn) [Example 48, 1-(3-chloro-benzenesulfonyl)-3-piperidin-3-yl-1H-pyrrolo[2,3-b]pyridine]

Row | SMILES | pKi
26 | O=S(=O)(c1ccccc1)n1cc(C2CCCNC2)c2ccccc21 (stereo not drawn) [Example 31, 1-Benzenesulfonyl-3-piperidin-3-yl-1H-indole] | 8.70
27 | O=S(=O)(c1ccc2ccccc2c1)n1cc(C2CCCNC2)c2ccccc21 (stereo not drawn) [Example 41, 1-(2-naphthylenesulfonyl)-3-piperidin-3-yl-1H-indole] | 8.10
